Source: ChEMBL document CHEMBL3430912, “GSK Tres Cantos Anti-Kinetoplastid Screening (TCAKS) Data”

Columns and labels:
Trypanosoma cruzi [1] = experiment: GSK_TCAKS: pIC50 Trypanosoma cruzi viability assay using beta-GAL activity. This assay was run at single shot at 5uM compound concentration per well. The biological reagents consisted of NIH-3T3 host cells and trypomastigotes parasitic cells; both cell types were set to a 3.3 * 10^5 cells/mL dilution in assay DMEM by means of a CASY cell counter device using a 60um capillary. 6 uL of the mixture were dispensed per well (about 1 * 10^3 host-cells and 1 * 10^3 parasites) with a Multidrop Combi dispenser. […] In all wells, the percentage of DMSO never exceeded 0.5%. Plates incubated for four days at 37C, 5% CO2. The substrate used for the assay fluorescence intensity (FLINT) readout was resorufin-beta-D-galactopiranoside (Sigma-Aldrich) at 5uM per well. It was diluted in PBS supplemented with the soft detergent Igepal (Fluka).; assay type: functional, organism-based, Mus musculus; settings: Tulahuen, NIH3T3
Trypanosoma cruzi [2] = experiment: (§1) GSK_TCAKS: pIC50 Trypanosoma cruzi Imaging: Infected Cells. […] Cells were then washed once with PBS before infection. T. cruzi trypomastigotes, collected at days 5 to 8 after infection from LLC-MK2 parasite infected cultures, were allowed to swim out for 4h at 37C from a centrifuged pellet (2,500 rpm/10 min/room temperature). Trypomastigotes were then collected and counted in a CASY Cell Counter. Trypomastigotes, in supplemented DMEM, were added to H9c2 cultures in a multiplicity of infection of 1 and incubated for 18 h. Cells were washed once with PBS before incubation of the infected H9c2 monolayer with trypsin (Life-Technologies) to detach cells from the flask. Cells were counted in a CASY Cell Counter using a 150 um capillary and their density set at 5 * 10^4 cells per mL in supplemented assay DMEM. Infected H9c2 were dispensed into 384-well poly-lysine coated assay plates at 50uL per well using a Multidrop Combi dispenser. After seeding them, the plates were incubated at 37C, 5% CO2 for 72h. Cultures were then fixed and stained by addition of 50 uL of a solution containing 8% formaldehyde and 4 uM DRAQ5 DNA dye (BioStatus, UK) per well. […] Five images were collected per well for reliable statistical analysis. Automated image analysis was performed with a script developed on Acapella High Content Imaging and Analysis Software (PerkinElmer). Output: percentage of infected cells per well as a second infection marker.; assay type: functional, organism-based, Rattus norvegicus; settings: H9c2, 4 h
Trypanosoma cruzi [3] = experiment: GSK_TCAKS: pIC50 Trypanosoma cruzi Imaging: Amastigotes/Cell. […] Cells were then washed once with PBS before infection. T. cruzi trypomastigotes, collected at days 5 to 8 after infection from LLC-MK2 parasite infected cultures, were allowed to swim out for 4h at 37C from a centrifuged pellet (2,500 rpm/10 min/room temperature). Trypomastigotes were then collected and counted in a CASY Cell Counter. Trypomastigotes, in supplemented DMEM, were added to H9c2 cultures in a multiplicity of infection of 1 and incubated for 18 h. Cells were washed once with PBS before incubation of the infected H9c2 monolayer with trypsin (Life-Technologies) to detach cells from the flask. Cells were counted in a CASY Cell Counter using a 150 um capillary and their density set at 5 * 10^4 cells per mL in supplemented assay DMEM. Infected H9c2 were dispensed into 384-well poly-lysine coated assay plates at 50uL per well using a Multidrop Combi dispenser. After seeding them, the plates were incubated at 37C, 5% CO2 for 72h. Cultures were then fixed and stained by addition of 50 uL of a solution containing 8% formaldehyde and 4 uM DRAQ5 DNA dye (BioStatus, UK) per well. […] Five images were collected per well for reliable statistical analysis. Automated image analysis was performed with a script developed on Acapella High Content Imaging and Analysis Software (PerkinElmer). Output: number of amastigotes per cell as infection level measurement.; assay type: functional, organism-based, Rattus norvegicus; settings: H9c2, 4 h
Trypanosoma cruzi [4] = experiment: as §1, with “H2C9” for “Trypanosoma cruzi”, “H9c2 Host Cardiomyocytes.” for “Infected Cells.”, “Number” for “percentage”, “H9c2 Host Cardiomyocytes nuclei to determine drug-related cytotoxicity.” for “infected cells per well as a second infection marker.”; assay type: functional, organism-based, Rattus norvegicus; settings: H9c2, 4 h
Leishmania donovani [5] = experiment: GSK_TCAKS: pIC50 Leishmania donovani viability assay using fluorescence intensity. Assay plates (1536-well) were prepared by adding 30nL per well of compound. For single shot assay, the final compound concentration was 5uM. […] Briefly, eGFP LdBOB axenic amastigotes were harvested, fixed and counted in a CASY cell counter (Roche-Applied Science). A final concentration of 1.5 * 10^5 cells per well were prepared in amastigote media containing 500 U/mL penicillin/streptomycin (Invitrogen) and 6uL was dispensed to each experimental well using a Multidrop Combi dispenser (Thermo Scientific). 6uL of assay media was dispensed to control columns used as reference for 100% compound response. Following incubation for 72 h at 37C, 5% CO2, 2 uL of resazurin was added to each well at a final concentration of 0.5 mM in phosphate buffered saline (PBS) with IGEPAL (Sigma-Aldrich), 0.05% (v/v).; assay type: functional, organism-based
Leishmania donovani [6] = experiment: (§2) GSK_TCAKS: pIC50 Leishmania donovani Imaging: Infected Macrophages. Assay plates (384-well) were prepared by adding 250nL of compound to each well. For single shot assay, the final compound concentration was 5 uM. […] Automated image analysis was performed with a script developed on Acapella High Content Imaging and Analysis Software (PerkinElmer). Output: Percent of infected macrophage cells were reported for each well.; assay type: functional, organism-based, Homo sapiens; settings: THP-1
Leishmania donovani [7] = experiment: as §2, with “Amastigotes/Macrophages.” for “Infected Macrophages.”, “Average number” for “Percent”, “amastigotes per” for “infected”, “cell” for “cells”; assay type: functional, organism-based, Homo sapiens; settings: THP-1
Leishmania donovani [8] = experiment: as §2, with “THP-1 Host” for “Infected”, “THP-1 cell count” for “Percent of infected macrophage cells”; assay type: functional, organism-based, Homo sapiens
[9] = tested on: Trypanosoma brucei brucei; experiment: GSK_TCAKS: pIC50 Trypanosoma brucei viability assay using fluorescence intensity. Assay plates (1536-well) were prepared by dispensing 25nL of compound solution per well using an Echo acoustic dispenser (Labcyte).; assay type: functional, organism-based; settings: Lister 427, 2 h
[10] = tested on: Trypanosoma brucei brucei; experiment: GSK_TCAKS: pIC50 Trypanosoma brucei viability assay using luminiscence. Assay plates (1536-well) were prepared. T. brucei cultures were harvested and counted in a CASY cell counter. A parasite suspension was prepared at a final concentration of 5 * 10^4 cells/mL in complete HMI9 medium and 6uL was dispensed to all wells containing compounds using a Multidrop Combi dispenser. 6uL of HMI9 media with 0.4% DMSO were dispensed to control columns. Plates were incubated for 24 h at 37C, 5% CO2 then tempered for 10 min at room temperature. ATP content was quantified by adding 4 uL of CellTiter-Glo Reagent (Promega) according to the manufacturer's instructions. Luminescence was measured using a ViewLux.; assay type: functional, organism-based; settings: Lister 427, CASY
[11] = GSK_TCAKS: pIC50 HepG2 human cell line viability assay using luminiscence. […] Seeding density was checked to ensure that new mono-layers were not more than 50% confluent at the time of harvesting. Cell suspension was added to 500 mL of the same medium at a final density of 1.2 * 10^5 cells/mL. This cell suspension was dispensed (25 uL, 3000 cells per well) into 384-well clear-bottom plates using a Multidrop Combi dispenser. Prior to addition of the cell suspension, the screening compounds (250 nL) were pre-dispensed into the plates with an Echo liquid handler. Plates were incubated for 48 h at 37C, 5% CO2. After incubation, plates equilibrated at room temperature for 30 min before proceeding to develop the luminescent signal. The signal developer, CellTiter-Glo Reagent, was allowed to equilibrate at room temperature for 30 min and added to the plates (25uL per well) using a Multidrop Combi dispenser. Plates were left for 10 min at room temperature for stabilization and then read using a ViewLux.; assay type: toxicity, cell-based
NIH3T3 = experiment: GSK_TCAKS: pIC50 NIH 3T3 cell line viability assay using luminiscence. Tissue culture surface treated assay plates (1536-well) were used. […] The 100% cells survival control was determined exposing the host-cells to a 0.5% DMSO concentration, whereas the 100% toxicity control was achieved by seeding the cells in presence of Amphotericin B at 50uM. Plates were incubated for four days at 37C, 5% CO2. The assay readout was developed by addition of 5uL of CellTiter-Glo Reagent following the manufacturer's instructions. Luminiscence was measured using a ViewLux.; assay type: functional, cell-based; settings: Mus musculus, NIH3T3, 96 h
[12] = target: Sterol 14-alpha demethylase (Trypanosoma cruzi (strain CL Brener), UniProt Q7Z1V1); experiment: GSK_TCAKS: pIC50 CYP51 from Trypanosoma cruzi.; assay type: functional
Chain of Sterol 14-alpha demethylase (Q7Z1V1 whole entry): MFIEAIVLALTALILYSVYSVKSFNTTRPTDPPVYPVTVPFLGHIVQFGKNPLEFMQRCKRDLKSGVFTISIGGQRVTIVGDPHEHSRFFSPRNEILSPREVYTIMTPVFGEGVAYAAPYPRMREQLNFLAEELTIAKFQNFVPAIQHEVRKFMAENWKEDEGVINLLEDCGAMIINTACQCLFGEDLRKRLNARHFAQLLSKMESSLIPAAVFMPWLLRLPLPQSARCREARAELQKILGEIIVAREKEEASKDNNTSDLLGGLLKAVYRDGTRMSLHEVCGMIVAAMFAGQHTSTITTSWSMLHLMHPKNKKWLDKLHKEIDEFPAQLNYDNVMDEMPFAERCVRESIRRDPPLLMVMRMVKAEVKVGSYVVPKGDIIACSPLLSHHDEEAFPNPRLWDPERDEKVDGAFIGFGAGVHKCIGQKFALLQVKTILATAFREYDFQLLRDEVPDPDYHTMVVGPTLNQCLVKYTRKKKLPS

Row | SMILES | IC50 (Trypanosoma cruzi [1]) [µM] | IC50 (Trypanosoma cruzi [2]) [µM] | IC50 (Trypanosoma cruzi [3]) [µM] | IC50 (Trypanosoma cruzi [4]) [µM] | IC50 (Leishmania donovani [5]) [µM] | IC50 (Leishmania donovani [6]) [µM] | IC50 (Leishmania donovani [7]) [µM] | IC50 (Leishmania donovani [8]) [µM] | IC50 [9] [µM] | IC50 [10] [µM] | IC50 at 48 h [11] [µM] | IC50 (NIH3T3) [µM] | IC50 [12] [µM]
1 | CC(C)(C)C(Cn1ccnc1)NC(=O)c1ccc2nc(C3CC3)oc2c1 (stereo unspecified) | 0.1 | 0.1 | 0.0794 | > 50.1 | 20 | > 50.1 | > 50.1 | 15.8 | > 39.8 | > 39.8 | > 100 | > 50.1 | 0.1
2 | Cc1ccc(CNC2CCN(C[C@@H]3Cn4c(=O)ccc5ccc(=O)n3c54)CC2)cc1F | 1.26 | 1.26 | 1 | > 50.1 | > 50.1 | > 50.1 | > 50.1 | > 50.1 | 1.58 | 2 | > 100 | 15.8 | > 100
3 | Cc1nc(N2CCC(C(=O)N3CCC(O)(c4cccnc4)CC3)CC2)nc2ccc(C(C)C)cc12 | 1.58 | 0.316 | 0.398 | 39.8 | > 50.1 | 50.1 | 10 | 25.1 | 20 | 31.6 | 79.4 | 25.1 | 0.126
4 | CN(Cc1ccc(F)cc1)c1ccc(OCC(=O)N2CCCCC2c2cccnc2)nn1 (stereo unspecified) | 0.316 | 0.398 | 0.398 | > 50.1 | 15.8 | > 50.1 | > 50.1 | 31.6 | > 39.8 | > 39.8 | > 100 | 10 | 0.0501
5 | Cc1ccc(NC(=O)C(C)n2nc([N+](=O)[O-])c(Br)c2C)cc1Cl (stereo unspecified) | 2.51 | 6.31 | 3.16 | > 50.1 | > 50.1 | > 50.1 | > 50.1 | > 50.1 | 15.8 | > 39.8 | 79.4 | 12.6 | > 100
6 | c1ccc(CCNCc2cncc3nc(-c4cnccn4)n(C4CCCCC4)c23)cc1 | 0.316 | 0.126 | 0.126 | > 50.1 | > 50.1 | > 50.1 | > 50.1 | > 50.1 | 31.6 | > 39.8 | > 100 | 6.31 | 0.1
7 | CN(Cc1nc2ccccc2s1)C(=O)C=Cc1cc2ccccc2o1 | 0.631 | 0.794 | 1 | > 50.1 | 50.1 | > 50.1 | 15.8 | > 50.1 | 31.6 | > 39.8 | > 100 | 31.6 | 0.158
